What was measured:
[1] = system: previously untreated, poor-risk AML; assay: Phase 2 study of tipifarnib in older adults with previously untreated, poor-risk AML (clinical response, overall survival); assay type: in vivo, human
From the text: In an exemplary example, bone marrow samples are collected from an open label, multicenter, non-comparative phase 2 study investigating the efficacy and safety of farnesyltransferase inhibition with tipifarnib (R115777, ZARNESTRA®) in older adults with previously untreated, poor-risk AML.
Briefly, HI was defined as any bone marrow blast count less than 5% or a reduction in bone marrow blasts by at least half. Progressive disease (PD) was defined as either >50% increase in bone marrow or circulating blast % from baseline, or new appearance of circulating blasts (on at least 2 consecutive occasions). Stable disease (SD) was defined as any response not meeting CR, PR, HI, or PD criteria.
This study examined gene expression profiles of leukemic bone marrow samples from patients enrolled in a Phase 2 clinical trial of the farnesyltransferase inhibitor tipifarnib in elderly patients with previously untreated poor-risk acute myelogenous leukemia. Lancet et al. (2006). Bone marrow from 67 patients was collected before treatment with tipifarnib and leukemic myeloid cells were enriched by Ficoll-density centrifugation (Table 1). Good quality total RNA from 13 responders (9 CR, 4 HI), 8 stable disease and 13 progressive disease patients was amplified, labeled, and hybridized to the Affymetrix U133A GeneChip. A total of 30 samples were evaluated by qPCR for validation of specific genes and 32 samples were evaluated for N-RAS mutational status.

relapsed/refractory AML = assay: Independent dataset of 54 relapsed/refractory AML patients treated with tipifarnib; assay type: in vivo, human; settings: 54 relapsed/refractory AML patient samples
Experimental: External validation of the TSP classifier was performed in an independent microarray dataset comprising of 54 relapsed/refractory AML patient samples. A diagnostic assay that predicts likely response to a cancer therapy should have a high sensitivity (and negative predictive value) since it is important to capture as many potential responders as possible. Therefore, to define an appropriate cutoff for testing the TSP classifier the need to obtain a high sensitivity of predicting responders while maintaining an acceptable level of specificity was considered. In the training set, the level of specificity that could be achieved ranged from approximately 30% to 100% when the sensitivity was set at 100% to 80%, respectively. To ensure the classifier would predict as many responders as possible a conservative cutoff that provided a specificity of approximately 60% in the training set was tested. When this cutoff was applied to the independent testing set of relapsed/refractory AML, the RASGRP1:APTX gene classifier stratified responders with 92% NPV and 27.6% PPV (compared to 18.5% prevalence) (FIG. 3C). The associated odds ratio for being a responder was 4.38.

[2] = Kaplan Meier analysis, RASGRP1 classifier, newly diagnosed AML (FIG. 1B)
[3] = qPCR RASGRP1:APTX classifier, cut-point 0, 30 patients (FIG. 3C)

Cn1cncc1[C@@](N)(c1ccc(Cl)cc1)c1ccc2c(c1)c(-c1cccc(Cl)c1)cc(=O)n2C [tipifarnib]
CR, (%) ([1]; All treated patients (n=158)): (14) % | CR, no. ([1]; All treated patients (n=158)): 22 | HI, (%) ([1]; All treated patients (n=158)): (8) % | HI, no. ([1]; All treated patients (n=158)): 12 | PD, (%) ([1]; All treated patients (n=158)): (37) % | PD, no. ([1]; All treated patients (n=158)): 58 | PR, (%) ([1]; All treated patients (n=158)): (2) % | PR, no. ([1]; All treated patients (n=158)): 3 | median overall survival of the responders [1, 2]: 386 days | median overall survival of those with progressive disease [1, 2]: 68 days | CR, (%) ([1]; PGx profiled patients (n=67)): (21) % | CR, no. ([1]; PGx profiled patients (n=67)): 14 | HI, (%) ([1]; PGx profiled patients (n=67)): (10) % | HI, no. ([1]; PGx profiled patients (n=67)): 7 | PD, (%) ([1]; PGx profiled patients (n=67)): (44) % | PD, no. ([1]; PGx profiled patients (n=67)): 30 | PR, (%) ([1]; PGx profiled patients (n=67)): (2) % | PR, no. ([1]; PGx profiled patients (n=67)): 1 | median overall survival of the predicted resistant patients [1, 3]: 82 days | median overall survival of those classified as responders [1, 3]: 295 days | prevalence of responders (relapsed/refractory AML): 18.5%

Source: patent US12274711B2, “Method of determining Acute Myeloid Leukemia response to treatment with farnesyltransferase inhibitors” (Janssen Pharmaceutica NV, priority 2010, dated 2025)
